Source: patent publication US6156541A (priority 1998, dated 2000)
Where a SMILES comes first, the peptide text is derived from it. [ ]: non-standard residue; d: D form. The star is where a group is joined. Sta = CC(C)C[C@H](N)[C@@H](O)CC(=O)O; Isovaleryl = CC(C)CC(=O)*

These compounds were tested on Lay2 L chain, human monoclonal antibody light chain (Bence Jones protein, kappa IIc subgroup) from a multiple myeloma patient.
Format: biochemical

Structure (SMILES) | Effect on Lay2-catalyzed gp120 hydrolysis
O=C(O)CN(CCN(CC(=O)O)CC(=O)O)CC(=O)O [EDTA] | without effect
NC(=O)CI [iodoacetamide] | without effect
CC(C)CC(=O)N[C@H](C(=O)N[C@H](C(=O)N[C@@H](CC(C)C)[C@@H](O)CC(=O)N[C@@H](C)C(=O)N[C@@H](CC(C)C)[C@@H](O)CC(=O)O)C(C)C)C(C)C [Pepstatin A] (Isovaleryl-VV[Sta]A[Sta]-OH) | without effect
